Test systems include PC-3 prostate; OVCAR-8 ovarian; OVCAR-5 ovarian; MOLT-4 leukemia; SF-295 CNS; SNB-75 CNS; UO-31 renal; OVCAR-4 ovarian; DU-145 prostate; NCI-H226 lung; MCF7 breast; SK-MEL-5 melanoma; MALME-3M melanoma; CCRF-CEM leukemia; M14 melanoma; SF-268 CNS; RXF 393 renal; K-562 leukemia; HCC-2998 colon; SK-OV-3 ovarian.
Common to all, as to assay: inhibition of tumour cell growth, NCI panel, 48 h

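Cultured in 96-well plates, cells were exposed to test compound for 48 hours across five concentrations. The concentration for full growth arrest is given as TGI.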

On to `CN1CCC/C1=C1/C(=O)N(c2ccccc2)N=C1c1ccc[nH]1`, for which the TGI with PC-3 prostate, in the test with OVCAR-8 ovarian, in the test with OVCAR-5 ovarian, in the test with MOLT-4 leukemia, with SF-295 CNS and with SNB-75 CNS was more than 100 µM throughout. The TGI in the test on UO-31 renal, with OVCAR-4 ovarian, in the test with DU-145 prostate, in the test with NCI-H226 lung, in the test with MCF7 breast and with SK-MEL-5 melanoma was more than 100 µM in each case. Moreover, the TGI in the test on MALME-3M melanoma, with CCRF-CEM leukemia, in the test on M14 melanoma, in the test on SF-268 CNS, in the test on RXF 393 renal and in the test on K-562 leukemia was more than 100 µM throughout. The TGI in the test on HCC-2998 colon is more than 100 µM.

With `C[C@H](NC(=O)CNC(=O)CCCCCC(=O)NCC(=O)N[C@@H](C)C(=O)OCc1ccccc1)C(=O)OCc1ccccc1`, the TGI in the test on PC-3 prostate, in the test with OVCAR-8 ovarian, in the test on OVCAR-5 ovarian, in the test on MOLT-4 leukemia, in the test with SF-295 CNS and with SNB-75 CNS was more than 100 µM in each case. Besides, the TGI in the test with OVCAR-4 ovarian, in the test on DU-145 prostate, in the test on NCI-H226 lung, with MCF7 breast, in the test with MALME-3M melanoma and in the test on CCRF-CEM leukemia was more than 100 µM each time. Also, the TGI in the test on SK-OV-3 ovarian, in the test on M14 melanoma, in the test with SF-268 CNS, in the test on RXF 393 renal, in the test with K-562 leukemia and in the test on HCC-2998 colon was more than 100 µM throughout.

On to `COc1cccc(C(NC2=NCCC=N2)c2cc3c(cc2O)OCO3)c1O` (stereo unspecified), for which the TGI in the test on PC-3 prostate was more than 100 µM; with OVCAR-8 ovarian, 25.4 µM; in the test on OVCAR-5 ovarian, more than 100 µM; with MOLT-4 leukemia it was 63 µM; in the test with SF-295 CNS, more than 100 µM; with SNB-75 CNS, 93.8 µM. The TGI in the test on UO-31 renal is more than 100 µM; with DU-145 prostate, more than 100 µM; in the test with NCI-H226 lung, more than 100 µM; in the test on MCF7 breast, 35.3 µM; with SK-MEL-5 melanoma, more than 100 µM; in the test on MALME-3M melanoma it was more than 100 µM. The TGI is 32.8 µM with CCRF-CEM leukemia; more than 100 µM in the test on SK-OV-3 ovarian; more than 100 µM in the test on M14 melanoma; more than 100 µM in the test on SF-268 CNS; 63 µM with RXF 393 renal; 40.6 µM in the test with K-562 leukemia. For the same compound, in the test with HCC-2998 colon, the TGI is 46.9 µM.

On to `CSc1c(C#N)c(S)n(-c2ccc(Cl)cc2)c(=O)c1C#N`, for which the TGI is more than 100 µM with PC-3 prostate; more than 100 µM in the test with OVCAR-8 ovarian; more than 100 µM in the test with OVCAR-5 ovarian; more than 100 µM in the test on MOLT-4 leukemia; more than 100 µM with SNB-75 CNS; 95.8 µM with UO-31 renal. Moreover, the TGI in the test on OVCAR-4 ovarian, with DU-145 prostate, in the test on NCI-H226 lung, in the test with MCF7 breast, in the test on SK-MEL-5 melanoma and in the test with MALME-3M melanoma was more than 100 µM each time. The TGI with CCRF-CEM leukemia, with SK-OV-3 ovarian, with M14 melanoma, in the test on SF-268 CNS, in the test with RXF 393 renal and with K-562 leukemia was more than 100 µM throughout. The TGI with HCC-2998 colon is more than 100 µM.

For `Nc1c(Cl)cc(-c2nc3ccccc3s2)cc1Cl`, the TGI with PC-3 prostate, in the test with OVCAR-8 ovarian, with MOLT-4 leukemia, with SF-295 CNS, in the test with SNB-75 CNS and in the test on UO-31 renal was more than 100 µM each time. The TGI in the test with DU-145 prostate, in the test with NCI-H226 lung, in the test on MCF7 breast, in the test with SK-MEL-5 melanoma, in the test on MALME-3M melanoma and in the test with CCRF-CEM leukemia was more than 100 µM throughout. Besides, the TGI in the test with SK-OV-3 ovarian, in the test on M14 melanoma, with SF-268 CNS, with RXF 393 renal, with K-562 leukemia and with HCC-2998 colon was more than 100 µM throughout.

Turning to `C=CCNC(=O)CN(CC(=O)O)C1CCCCC1N(CC(=O)O)CC(=O)O` (stereo unspecified), the TGI with PC-3 prostate, in the test with OVCAR-8 ovarian, in the test on OVCAR-5 ovarian, in the test on MOLT-4 leukemia, in the test with SF-295 CNS and in the test on SNB-75 CNS was more than 100 µM each time. The TGI in the test on UO-31 renal, in the test with OVCAR-4 ovarian, with DU-145 prostate, with NCI-H226 lung, in the test with MCF7 breast and in the test with SK-MEL-5 melanoma was more than 100 µM throughout. The TGI in the test with MALME-3M melanoma, in the test with CCRF-CEM leukemia, in the test with SK-OV-3 ovarian, with SF-268 CNS, with RXF 393 renal and with K-562 leukemia was more than 100 µM throughout. For the same compound, in the test with HCC-2998 colon, the TGI was more than 100 µM.

On to `FC(F)(F)c1cccnc1Sc1nc2ccccc2s1`, for which the TGI with PC-3 prostate, with OVCAR-8 ovarian, in the test with OVCAR-5 ovarian, with MOLT-4 leukemia, with SF-295 CNS and in the test on SNB-75 CNS was more than 100 µM throughout. Moreover, the TGI in the test on UO-31 renal, in the test with OVCAR-4 ovarian, with DU-145 prostate, in the test on NCI-H226 lung, in the test on MCF7 breast and with SK-MEL-5 melanoma was more than 100 µM each time. For the same compound, the TGI in the test on MALME-3M melanoma, in the test with CCRF-CEM leukemia, in the test on M14 melanoma, with SF-268 CNS, in the test on RXF 393 renal and in the test with K-562 leukemia was more than 100 µM throughout. The TGI in the test with HCC-2998 colon was more than 100 µM.

Values taken from PubChem BioAssay (NCI).
